Measurements as given in patent US7427591B2, “Suppression of immune response via inhibition of cathepsin S” (Massachusetts Institute of Technology, priority 1996, dated 2008).

Key:
human cathepsin H = target: T1, human cathepsin H (Homo sapiens, UniProt P09668); experiment: Inhibition of purified human cathepsin H; assay type: biochemical; settings: purified enzyme
T1 construct: purchased Calbiochem-Novabiochem Corp., San Diego, Calif
T1 sequence (P09668 98-335): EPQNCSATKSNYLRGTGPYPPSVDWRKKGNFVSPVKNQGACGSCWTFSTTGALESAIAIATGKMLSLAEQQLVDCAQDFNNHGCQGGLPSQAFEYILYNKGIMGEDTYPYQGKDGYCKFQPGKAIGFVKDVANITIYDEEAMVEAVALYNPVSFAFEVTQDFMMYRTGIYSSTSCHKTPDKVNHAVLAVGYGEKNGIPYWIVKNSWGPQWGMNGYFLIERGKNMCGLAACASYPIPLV
Excerpt: Purified human cathepsin H (obtained from Calbiochem-Novabiochem Corp., San Diego, Calif.) was not inhibited with LHVS nor did it display any proteolytic activity against immunoprecipitated αβIi, implying that cathepsin H is not an essential protease for Ii degradation.

cathepsin S = cathepsin S (Homo sapiens, UniProt P25774); experiment: Active site labeling of cysteine proteases with Cbz-[125I]-Tyr-Ala-CN2 in HOM2 cells: cathepsin S; assay type: cell-based
cathepsin B = cathepsin B (Homo sapiens, UniProt P07858); experiment: Active site labeling of cysteine proteases with Cbz-[125I]-Tyr-Ala-CN2 in HOM2 cells: cathepsin B; assay type: cell-based
Excerpt: SIDS, 1% Triton X-100 on ice.

[1] = test system: Ii processing in HOM2 cells; settings: leupeptin; Neefjes and Ploegh 1992; cited from earlier work
multiple sclerosis = experiment: Treating multiple sclerosis in a human; settings: intravenous injection once a day, 500 mg/70 kg body weight
pemphigus vulgaris = experiment: Treating pemphigus vulgaris in a human; assay type: in vivo; settings: topical ointment 50 mg/gm, daily
Description: The dose is 50 mg/gm of ointment and is applied daily to the affected area.

[2] = test system: Ii processing in HOM2 cells; experiment: 35S pulse/chase of HOM2 cells, Tu36 immunoprecipitation, SDS-PAGE: Ii processing and SDS-stable class II peptide complexes; assay type: cell-based, human; settings: E64D
Excerpt: Lysates were precleared with protein A-agarose.
Samples were eluted with SDS-PAGE sample buffer.

cathepsin D = cathepsin D (Homo sapiens, UniProt P07339); settings: Alteri et al. 1993; cited from earlier work
cathepsin D, sequence (P07339 65-412, species assumed): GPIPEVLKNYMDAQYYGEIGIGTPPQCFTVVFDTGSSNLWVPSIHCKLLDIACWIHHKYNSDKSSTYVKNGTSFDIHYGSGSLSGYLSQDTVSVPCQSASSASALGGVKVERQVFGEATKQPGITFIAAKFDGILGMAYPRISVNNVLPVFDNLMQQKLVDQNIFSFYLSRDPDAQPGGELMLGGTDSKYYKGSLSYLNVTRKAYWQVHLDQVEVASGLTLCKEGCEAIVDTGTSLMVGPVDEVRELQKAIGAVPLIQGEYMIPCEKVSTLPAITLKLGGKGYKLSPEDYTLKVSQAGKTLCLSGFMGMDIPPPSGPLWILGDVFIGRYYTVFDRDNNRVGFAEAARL

cathepsin S, sequence (P25774 115-331): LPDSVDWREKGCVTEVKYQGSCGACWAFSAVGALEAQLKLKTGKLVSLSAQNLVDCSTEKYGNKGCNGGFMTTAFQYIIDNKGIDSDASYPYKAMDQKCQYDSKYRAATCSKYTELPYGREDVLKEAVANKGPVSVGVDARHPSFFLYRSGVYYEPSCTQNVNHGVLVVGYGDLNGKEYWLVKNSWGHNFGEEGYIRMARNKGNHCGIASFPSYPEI

CC(C)C[C@H](NC(=O)N1CCOCC1)C(=O)N[C@H](/C=C/S(=O)(=O)c1ccccc1)CCc1ccccc1 [LHVS, morpholinurea-leucine-homophenylalanine-vinylsulfone phenyl]
inhibition of purified human cathepsin H (human cathepsin H): not inhibited
concentrations that specifically inhibit cathepsin S, leaving other cysteine proteases functionally active (cathepsin S): 1 to 5 nM
labeling of cathepsin S with Cbz-[125I]-Tyr-Ala-CN2 (cathepsin S; LHVS 1 nM, 1 hour preincubation at 37° C.): effectively inhibited
labeling of cathepsin B with Cbz-[125I]-Tyr-Ala-CN2 (cathepsin B; LHVS 1 nM): but not cathepsin B
labeling of cathepsin B with Cbz-[125I]-Tyr-Ala-CN2 (cathepsin B; LHVS 5 nM): decreased, although some activity remained

CC(=O)N[C@@H](CC(C)C)C(=O)N[C@@H](CC(C)C)C(=O)N[C@H](C=O)CCCNC(=N)N [leupeptin]
SDS-stable complexes (peptide-loaded αβ-dimers) [1]: decrease

Leu-Arg-Met-vinylsulfone
effect on multiple sclerosis (multiple sclerosis): alleviates the effects of multiple sclerosis

N-(carboxybenzyl)-Arg-Met-vinylsulfone
effect on pemphigus vulgaris (pemphigus vulgaris): alleviates the effects of pemphigus vulgaris

CCOC(=O)[C@H]1O[C@@H]1C(=O)N[C@@H](CC(C)C)C(=O)NCCC(C)C (relative stereo) [E64D]
SDS-stable dimer formation [2]: decrease in SDS-stable dimer formation

CC(C)[C@H](NC(=O)[C@H](Cc1ccccc1)C[C@H](O)[C@H](Cc1ccccc1)NC(=O)OC(C)(C)C)C(=O)N[C@@H](Cc1ccccc1)C(=O)N1CCOCC1 [CGP 53437]
inhibits cathepsin D (potency range) (cathepsin D): nanomolar range
